The record followed here is patent publication US20150344485A1, “BICYCLIC PYRIMIDONE COMPOUNDS AS INHIBITORS OF LP-PLA2” (GLAXOSMITHKLINE INTELLECTUAL PROPERTY DEVELOPMENT LIMITED, priority 2013, published 2015).

Structures are written as SMILES. Like-named read-outs stand apart in the source and are kept apart here.

The target in assay [1] is T1, recombinant human Lp-PLA2 (Homo sapiens, UniProt Q13093).
T1 sequence (Q13093 22-441): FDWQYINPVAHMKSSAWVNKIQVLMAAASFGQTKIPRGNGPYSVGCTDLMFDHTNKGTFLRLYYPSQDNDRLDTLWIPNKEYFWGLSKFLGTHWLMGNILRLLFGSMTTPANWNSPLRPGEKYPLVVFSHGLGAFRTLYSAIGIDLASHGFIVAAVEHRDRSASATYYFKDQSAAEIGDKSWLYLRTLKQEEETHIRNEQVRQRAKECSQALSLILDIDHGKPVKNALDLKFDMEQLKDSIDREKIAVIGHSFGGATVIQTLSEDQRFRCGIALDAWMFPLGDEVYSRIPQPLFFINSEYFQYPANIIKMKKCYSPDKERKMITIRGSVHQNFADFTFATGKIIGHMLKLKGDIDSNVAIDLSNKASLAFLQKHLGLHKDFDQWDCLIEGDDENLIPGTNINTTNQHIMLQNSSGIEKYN
The assay can be described thus: Recombinant human Lp-PLA2 assay (rhLp-PLA2, PED6 assay). It counts as biochemical. In short, it runs like this:
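Enzyme (4 nM or 110 pM, as stated for the 5 μL addition) preincubated 30 min with compound in 50 mM HEPES pH 7.4, 150 mM NaCl, 1 mM CHAPS, then PED6 substrate (4 or 5 μM in the addition) added. Fluorescence (ex 480/em 540) read after 20 min, room temperature; pIC50 from curve fitting.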

Another assay concerns the target T2, Lp-PLA2 in human plasma (Homo sapiens, UniProt Q13093).
T2 construct: from tissue; host or cells: pooled human plasma
T2 sequence (Q13093 22-441): T1 sequence (Q13093 22-441)
The assay can be described thus: Lp-PLA2 human plasma assay (Thio-PAF assay). The assay is classed as biochemical. To be noted: pooled human plasma; read-out: pIC50 values in the thio-PAF assay (converted). In short, it runs like this:
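Pooled human plasma preincubated 30 min with compound, then 2-thio-PAF substrate added with CPM and NEM in 50 mM HEPES pH 7.4, 150 mM NaCl, 1 mM CHAPS. Quenched with TFA after 2 min, incubated 40 min at room temperature, and read by fluorescence at ex 380/em 485 nm. Values given as pIC50.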

Setting [2] is: read-out: pIC50 values in the recombinant human Lp-PLA2 assay (converted).
The mark [3] stands for this setting: read-out: rhLp-PLA2 (PED6 assay) (pIC50) (converted).

Regarding `[2H]C([2H])(Oc1cc2n(c(=O)n1)CCC(C)(C)N2C)c1cc(F)cc(F)c1` [E75, 8-((3,5-difluorophenyl)dideuteromethoxy)-1,2,2-trimethyl-3,4-dihydro-1H-pyrimido[1,6-a]pyrimidin-6(2H)-one], the IC50 in assay [1] (setting [2]) was ≤ 1 nM; on Lp-PLA2 in human plasma it was ≤ 100 nM.
Regarding `CC1CCn2c(cc(OCc3cc(F)c(F)c(F)c3)nc2=O)N1C` (stereo not drawn) [E8, 1,2-dimethyl-8-((3,4,5-trifluorobenzyl)oxy)-3,4-dihydro-1H-pyrimido[1,6-a]pyrimidin-6(2H)-one], the results for the IC50 (in assay [1] (setting [2]); in assay [1] (setting [3]); on Lp-PLA2 in human plasma) were ≤ 1 nM, 0.398 nM and ≤ 100 nM, respectively.
Take `C[C@H]1CCn2c(cc(OCc3ccc(Oc4ccc(F)c(F)c4)c(F)c3)nc2=O)N1C` [E86, (S)-8-((4-(3,4-difluorophenoxy)-3-fluorobenzyl)oxy)-1,2-dimethyl-3,4-dihydro-1H-pyrimido[1,6-a]pyrimidin-6(2H)-one]: the IC50 in assay [1] (setting [2]) is ≤ 1 nM; on Lp-PLA2 in human plasma it was ≤ 100 nM.
For the compound `C[C@H]1CCn2c(cc(OCc3ccc(Oc4cnc(C(F)(F)F)nc4)c(F)c3)nc2=O)N1C` [E107, (S)-8-((3-fluoro-4-((2-(trifluoromethyl)pyrimidin-5-yl)oxy)benzyl)oxy)-1,2-dimethyl-3,4-dihydro-1H-pyrimido[1,6-a]pyrimidin-6(2H)-one], the IC50 in assay [1] (setting [2]) was ≤ 1 nM; in assay [1] (setting [3]) it was 0.398 nM; on Lp-PLA2 in human plasma, ≤ 100 nM.
Regarding `C[C@@H]1CCn2c(cc(OCc3cc(F)c(Oc4ccc(F)c(F)c4)c(F)c3)nc2=O)N1C` [E101, (R)-8-((4-(3,4-difluorophenoxy)-3,5-difluorobenzyl)oxy)-1,2-dimethyl-3,4-dihydro-1H-pyrimido[1,6-a]pyrimidin-6(2H)-one], the IC50 was ≤ 1 nM in assay [1] (setting [2]) and ≤ 10 nM at Lp-PLA2 in human plasma.
Consider `C[C@H]1CCn2c(cc(OCc3ccc(Oc4cccc(C(F)(F)F)c4)c(C#N)c3)nc2=O)N1C` [E98, (S)-5-(((1,2-dimethyl-6-oxo-2,3,4,6-tetrahydro-1H-pyrimido[1,6-a]pyrimidin-8-yl)oxy)methyl)-2-(3-(trifluoromethyl)phenoxy)benzonitrile], for which the figures for the IC50 (in assay [1] (setting [2]); on Lp-PLA2 in human plasma) were ≤ 1 nM and ≤ 10 nM, respectively.
On the same counts, the results for `C[C@@H]1CCn2c(cc(OCc3ccc(Oc4ccc(C(F)(F)F)c(F)c4)cc3)nc2=O)N1C` [E108, (R)-8-((4-(3-fluoro-4-(trifluoromethyl)phenoxy)benzyl)oxy)-1,2-dimethyl-3,4-dihydro-1H-pyrimido[1,6-a]pyrimidin-6(2H)-one] are ≤ 1 nM and ≤ 100 nM.
Consider `C[C@@H]1CCn2c(cc(OCc3cc(F)c(Oc4ccc(F)c(Cl)c4)c(F)c3)nc2=O)N1C` [E109], for which the IC50 in assay [1] (setting [2]) was ≤ 1 nM; on Lp-PLA2 in human plasma, ≤ 10 nM.
On to `C[C@@H]1CCn2c(cc(OCc3cc(F)c(Oc4ccc(C(F)(F)F)nc4)c(F)c3)nc2=O)N1C` [E119, (R)-8-((3,5-difluoro-4-((6-(trifluoromethyl)pyridin-3-yl)oxy)benzyl)oxy)-1,2-dimethyl-3,4-dihydro-1H-pyrimido[1,6-a]pyrimidin-6(2H)-one], for which the IC50 in assay [1] (setting [2]) was ≤ 1 nM; on Lp-PLA2 in human plasma, ≤ 100 nM.
As to `CN1c2cc(OCc3ccc(Oc4ccc(C(F)(F)F)nc4)c(C#N)c3)nc(=O)n2CCC1(C)C` [E112, 2-((6-(trifluoromethyl)pyridin-3-yl)oxy)-5-(((1,2,2-trimethyl-6-oxo-2,3,4,6-tetrahydro-1H-pyrimido[1,6-a]pyrimidin-8-yl)oxy)methyl)benzonitrile], the IC50 was ≤ 1 nM in assay [1] (setting [2]) and ≤ 10 nM on Lp-PLA2 in human plasma.
On the same counts, the results for `C[C@H]1CCn2c(cc(OCc3ccc(Oc4ccc(C(F)(F)F)nc4)c(F)c3)nc2=O)N1C` [E142, (S)-8-((3-fluoro-4-((6-(trifluoromethyl)pyridin-3-yl)oxy)benzyl)oxy)-1,2-dimethyl-3,4-dihydro-1H-pyrimido[1,6-a]pyrimidin-6(2H)-one] are ≤ 1 nM and ≤ 10 nM.
For `CN1c2cc(OCc3ccc(Oc4ccc(F)cc4)c(C#N)c3)nc(=O)n2CCC1(C)C` [E118, 2-(4-fluorophenoxy)-5-(((1,2,2-trimethyl-6-oxo-2,3,4,6-tetrahydro-1H-pyrimido[1,6-a]pyrimidin-8-yl)oxy)methyl)benzonitrile], in that order: ≤ 1 nM and ≤ 100 nM.
On the same counts, the results for `[2H]C([2H])(Oc1cc2n(c(=O)n1)CCC(C)(C)N2C)c1cc(F)c(F)cc1F` [E71, 8-(dideutero(2,4,5-trifluorophenyl)methoxy)-1,2,2-trimethyl-3,4-dihydro-1H-pyrimido[1,6-a]pyrimidin-6(2H)-one] are ≤ 1 nM and ≤ 100 nM.
Regarding `C[C@@H]1CCn2c(cc(OCc3ccc(Oc4ccc(Cl)c(C(F)(F)F)c4)c(F)c3)nc2=O)N1C` [E143], the values for the IC50 (in assay [1] (setting [2]); at Lp-PLA2 in human plasma) were ≤ 1 nM and ≤ 10 nM, respectively.
Consider `C[C@@H]1CCn2c(cc(OCc3ccc(Oc4cccc(C(F)(F)F)c4)c(C#N)c3)nc2=O)N1C` [E123, (R)-5-(((1,2-dimethyl-6-oxo-2,3,4,6-tetrahydro-1H-pyrimido[1,6-a]pyrimidin-8-yl)oxy)methyl)-2-(3-(trifluoromethyl)phenoxy)benzonitrile], for which the IC50 in assay [1] (setting [2]) was ≤ 1 nM; on Lp-PLA2 in human plasma, ≤ 10 nM.
On the same counts, the results for `C[C@@H]1CCn2c(cc(OCc3ccc(Oc4ccc(F)cc4)c(C#N)c3)nc2=O)N1C` [E125, (R)-5-(((1,2-dimethyl-6-oxo-2,3,4,6-tetrahydro-1H-pyrimido[1,6-a]pyrimidin-8-yl)oxy)methyl)-2-(4-fluorophenoxy)benzonitrile] are ≤ 1 nM and ≤ 100 nM.
For `CN1c2cc(OCc3ccc(Oc4cccc(F)c4)c(C#N)c3)nc(=O)n2CCC1(C)C` [E117, 2-(3-fluorophenoxy)-5-(((1,2,2-trimethyl-6-oxo-2,3,4,6-tetrahydro-1H-pyrimido[1,6-a]pyrimidin-8-yl)oxy)methyl)benzonitrile], in that order: ≤ 1 nM and ≤ 100 nM.
On the same counts, the results for `CC1CCn2c(cc(OCc3ccc(F)c(F)c3)nc2=O)N1C` (stereo not drawn) [E7, 8-((3,4-difluorobenzyl)oxy)-1,2-dimethyl-3,4-dihydro-1H-pyrimido[1,6-a]pyrimidin-6(2H)-one] are ≤ 1 nM and ≤ 100 nM.
As to `C[C@@H]1CCn2c(cc(OCc3cc(F)c(Oc4cnc(C(F)(F)F)nc4)c(F)c3)nc2=O)N1C` [E97, (R)-8-((3,5-difluoro-4-((2-(trifluoromethyl)pyrimidin-5-yl)oxy)benzyl)oxy)-1,2-dimethyl-3,4-dihydro-1H-pyrimido[1,6-a]pyrimidin-6(2H)-one], the IC50 in assay [1] (setting [2]) is ≤ 1 nM; in assay [1] (setting [3]) it was 0.1 nM; at Lp-PLA2 in human plasma it was ≤ 10 nM.
Turning to `C[C@@H]1CCn2c(cc(OCc3ccc(Oc4cccc(F)c4)c(C#N)c3)nc2=O)N1C` [E102, (R)-5-(((1,2-dimethyl-6-oxo-2,3,4,6-tetrahydro-1H-pyrimido[1,6-a]pyrimidin-8-yl)oxy)methyl)-2-(3-fluorophenoxy)benzonitrile], the IC50 in assay [1] (setting [2]) was ≤ 1 nM; on Lp-PLA2 in human plasma, ≤ 10 nM.
Take `C[C@@H]1CCn2c(cc(OCc3cc(F)c(Oc4cncc(C(F)(F)F)c4)c(F)c3)nc2=O)N1C` [E148, (R)-8-((3,5-difluoro-4-((5-(trifluoromethyl)pyridin-3-yl)oxy)benzyl)oxy)-1,2-dimethyl-3,4-dihydro-1H-pyrimido[1,6-a]pyrimidin-6(2H)-one]: the figures for the IC50 (in assay [1] (setting [2]); on Lp-PLA2 in human plasma) were ≤ 1 nM and ≤ 10 nM, respectively.
`C[C@H]1CCn2c(cc(OCc3cc(F)c(Oc4cccc(C(F)(F)F)c4)c(F)c3)nc2=O)N1C` [E62, (S)-8-((3,5-difluoro-4-(3-(trifluoromethyl)phenoxy)benzyl)oxy)-1,2-dimethyl-3,4-dihydro-1H-pyrimido[1,6-a]pyrimidin-6(2H)-one]: the IC50 is 3.98 nM in assay [1] (setting [3]) and ≤ 10 nM at Lp-PLA2 in human plasma.
Consider `C[C@@H]1CCn2c(cc(OCc3ccc(Oc4ccc(C(F)(F)F)cc4)c(C#N)c3)nc2=O)N1C` [E78], for which the IC50 in assay [1] (setting [2]) is ≤ 1 nM; on Lp-PLA2 in human plasma it was ≤ 100 nM.
On the same counts, the results for `C[C@@H]1CCn2c(cc(OCc3ccc(Oc4ccc(C(F)(F)F)cc4)c(F)c3)nc2=O)N1C` [E121, (R)-8-((3-fluoro-4-(4-(trifluoromethyl)phenoxy)benzyl)oxy)-1,2-dimethyl-3,4-dihydro-1H-pyrimido[1,6-a]pyrimidin-6(2H)-one] are ≤ 1 nM and ≤ 100 nM.
For the compound `C[C@H]1CCn2c(cc(OCc3cc(F)c(Oc4ccc(C(F)(F)F)nc4)c(F)c3)nc2=O)N1C` [E46, (S)-8-((3,5-difluoro-4-((6-(trifluoromethyl)pyridin-3-yl)oxy)benzyl)oxy)-1,2-dimethyl-3,4-dihydro-1H-pyrimido[1,6-a]pyrimidin-6(2H)-one], the figures for the IC50 (in assay [1] (setting [2]); in assay [1] (setting [3]); at Lp-PLA2 in human plasma) were ≤ 1 nM, 0.126 nM and ≤ 10 nM, respectively.
